From US12297240B2, “Peptide” (Kyoto University, priority 2015, dated 2025)

Tests used:
ddY mice [1] = assay: Elevated plus-maze test (EPM); assay type: in vivo
From the text: The elevated plus-maze includes two open arms (25×5 cm) and two closed arms (25×5×15 cm), which are joined to a central platform 50 cm high above the floor (see FIG. 3A). Because the closed arms are surrounded by walls, a mouse can safely walk in the closed arms in spite of the elevated position. On the other hand, because the open arms are not surrounded by walls, a mouse walking along the open arms feels anxious that it may fall from the elevated position. Thus, the more time the mouse spends in the open arms, or the greater the number of entries into the open arms, the less anxious the mouse feels. Thus, the anxiolytic activity is determined based on these indices.
Each mouse was placed on a portion of the central platform facing one of the open arms 30 minutes after the administration, and the test was started. During the 5-minute test time, the cumulative time spent in the open arms (time in open arms), the number of visits to the open arms (visit to open arms), and the total number of visits to any of the arms (total visits) were recorded. The percentage of time spent in the open arms and the percentage of the number of visits to the open arms were calculated as indices of anxiety.

ddY mice [2] = assay: Tail suspension test; assay type: in vivo
Description: (§1) The test was carried out (0 minutes) 30 minutes after administration of a test substance, and the immobility time during the period from 0 to 6 minutes was measured (FIG. 2).
(§2) When an antidepressant drug, such as imipramine, is administered, the immobility time is reduced. Thus, when a reduction in the immobility time is observed, it can be evaluated that the test substance has an antidepressant-like effect. Immobility is considered a despair state; therefore, a reduction in the immobility time also serves as an index for improvement of a despair state, i.e., enhancement of motivation.

ddY mice [3] = assay: Open field test; assay type: in vivo
Description: Similar to the case of the elevated plus-maze test, the higher the percentage of exploratory behaviors of a mouse in the center portion of a circle, the less anxious the mouse feels. Thus, the anxiolytic activity is determined based on this index.
Each mouse was placed in an open field 30 minutes after the administration, and the test was started. The percentage of exploratory behaviors in the center portion of the circle (the time spent in the center circle (open field) (Time in 12 cm circle) and the percentage of the number of visits to the center circle (Visits in 12 cm circle)) during the 5-minute test time were evaluated.

[4] = tested on: serotonin 5-HT1A, dopamine D1, and GABAA receptors; assay: Tail suspension test in combination with receptor antagonists (mechanism of action); assay type: in vivo, mice; details: 0.3 mg/kg p.o. with WAY100135 10 mg/kg, SCH23390 30 μg/kg or bicuculline 30 mg/kg (Example 8, FIG. 11)
Description: as §1
(§3) The tail suspension test was performed using mice to which 30 mg/kg of the thermolysin digest of β-CG was orally administered (p.o.) in combination with each of the antagonists of various receptors. Three kinds of antagonists, i.e., WAY100135, which is an antagonist of the serotonin 5-HT1A receptor (dose: 10 mg/kg), SCH23390, which is an antagonist of the dopamine D1 receptor (dose: 30 μg/kg), and bicuculline, which is an antagonist of the GABA-A receptor (dose: 30 mg/kg), were used.
as §3, with “which 0.3” for “which 30”, “the peptide LSSTQAQQSY (SEQ ID NO: 1)” for “the thermolysin digest of β-CG”

ddY mice [5] = assay: Forced swim test; assay type: in vivo; details: 1 mg/kg or more orally; doses tested 0.3, 1 mg/kg (Example 5, FIG. 8)
Description: The test was carried out (0 minutes) 30 minutes after administration of a test substance, and the immobility time during the period from 0 to 8 minutes was measured (FIG. 2).
as §2, with “As in the tail suspension test, when” for “When”

For “LSSTQAQQSY (Designed peptide) [10-residue peptide from thermolysin digest of soybean β-conglycinin; synthesized by a standard method]”, the “percentage of time spent in the open arms” value (ddY mice [1]; 1 mg/kg orally, doses tested 0.1, 0.3, 1 mg/kg (Example 10, FIG. 14)) was “significantly increased”, the “total number of entries (amount of activities)” value (ddY mice [1]; 0.1, 0.3 or 1 mg/kg (Example 10, FIG. 14)) was “no significant difference” and the immobility time (ddY mice [2]; 0.3 mg/kg or more orally, doses tested 0.1, 0.3, 1, 3 mg/kg (Example 4, FIG. 7)) was “significantly reduced”. The immobility time (ddY mice [2]; 0.3 mg/kg orally, C-terminal variants (Example 12, FIG. 16)) was “strongest immobility time reducing effect”, the immobility time (ddY mice [2]; 0.3 mg/kg orally, structure-activity relationships (Example 6, FIG. 9)) was “strongest immobility time reducing effect” and the “number of visits to the center circle (open field)” value (ddY mice [3]; 1 mg/kg orally (Example 11, FIG. 15)) was “significantly increased”. The “time spent in the center circle (open field)” value (ddY mice [3]; 1 mg/kg orally, doses tested 0.1, 0.3, 1 mg/kg (Example 11, FIG. 15)) was “significantly increased”, the amount of activities (ddY mice [3]; 0.1, 0.3 or 1 mg/kg (Example 11, FIG. 15)) was “no significant difference” and the “reduction in the immobility time in combination with antagonists” value [4] was “significantly suppressed”. For the same sequence, the immobility time (ddY mice [5]) was “significantly reduced”.
